Experimental data: US20120302598A1, “IMIDAZOPYRIDINONES” (PFIZER LIMITED, priority 2007, published 2012)
Several values for one entry are separate records, joined by “and”; a condition that tells them apart may be missing. Equal values may be shown once.

Columns and labels:
TLR7 = target: T1, TLR7 (Homo sapiens, UniProt Q9NYK1); experiment: PBL/HCV replicon bioassay; assay type: cell-based; details: read-out: EC50 (nM) (n = no. of experiments)
T1 construct: PBL contain as a subpopulation plasmacytoid dendritic cells which are the natural interferon producing cells; endogenous in cells; host or cells: peripheral blood lymphocytes (PBL), containing plasmacytoid dendritic cells
T1 sequence (Q9NYK1 27-1049): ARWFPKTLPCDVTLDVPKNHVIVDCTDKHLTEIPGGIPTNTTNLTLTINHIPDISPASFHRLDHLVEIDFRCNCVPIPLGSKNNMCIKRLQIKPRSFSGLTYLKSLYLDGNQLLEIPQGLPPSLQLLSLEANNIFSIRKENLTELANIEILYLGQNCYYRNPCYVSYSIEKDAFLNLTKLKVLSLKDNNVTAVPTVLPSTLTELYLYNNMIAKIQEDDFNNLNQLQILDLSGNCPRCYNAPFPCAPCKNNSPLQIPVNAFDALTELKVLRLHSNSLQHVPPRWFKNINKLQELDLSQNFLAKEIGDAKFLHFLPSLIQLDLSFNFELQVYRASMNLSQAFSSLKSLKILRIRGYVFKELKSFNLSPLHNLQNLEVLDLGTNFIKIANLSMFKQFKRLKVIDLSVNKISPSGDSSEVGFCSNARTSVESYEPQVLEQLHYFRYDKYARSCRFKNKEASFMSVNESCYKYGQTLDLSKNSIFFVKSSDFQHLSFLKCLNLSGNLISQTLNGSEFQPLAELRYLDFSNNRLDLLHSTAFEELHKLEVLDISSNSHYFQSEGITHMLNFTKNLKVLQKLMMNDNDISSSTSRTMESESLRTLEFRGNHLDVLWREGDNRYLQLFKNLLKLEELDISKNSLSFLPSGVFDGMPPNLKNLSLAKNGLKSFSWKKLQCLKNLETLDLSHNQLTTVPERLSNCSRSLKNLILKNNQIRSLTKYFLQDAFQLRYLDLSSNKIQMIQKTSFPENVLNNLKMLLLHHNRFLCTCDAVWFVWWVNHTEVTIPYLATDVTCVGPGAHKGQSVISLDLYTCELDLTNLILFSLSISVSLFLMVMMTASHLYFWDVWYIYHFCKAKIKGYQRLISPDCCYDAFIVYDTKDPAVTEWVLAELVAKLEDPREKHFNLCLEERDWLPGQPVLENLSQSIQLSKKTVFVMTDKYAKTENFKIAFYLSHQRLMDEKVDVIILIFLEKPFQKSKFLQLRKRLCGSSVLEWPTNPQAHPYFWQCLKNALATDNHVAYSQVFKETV
From the text: EMCV: Encephalomyocarditis virus IRES: Internal ribosmomal entry site Huh: Huh-7 human hepatoma cell line 7 (parental cells used to generate HCV replicon cell lines) IUC: luciferase ubi: ubiquitin neo: neomycin ET: glutamic acid, threonine (cell culture adaptive mutations in the replicon used in the assay) RPMI-FCS: Roswell Park Memorial Institute (cell culture medium for PBL)—Foetal Calf Serum PBL: peripheral blood lymphocytes
PBL contain as a subpopulation plasmacytoid dendritic cells which are the natural interferon producing cells during an infection and as such are an excellent model in which to profile interferon inducers. As an extremely sensitive antiviral bioassay, supernatant taken from PBL is assayed for antiviral activity in the HCV replicon system.
The HCV replicon (Huh-5-2[l389 luc-ubi-neo-NS3-3′/ET]) is an in vitro model of HCV replication in which the luciferase reporter is incorporated into HCV sequences and stably maintained in the human hepatoma cell line Huh-7. The firefly luciferase reporter is expressed as a luciferase-ubiquitin-neomycin phosphotransferase fusion protein which is cleaved by host proteases to release luciferase. […] Firefly luciferase activity is detected using a Bright-Glo™ Luciferase Assay System manufactured by Promega. […]

[1] = system: HCV replicon containing cells; experiment: Direct response of HCV replicon containing cells to TLR agonists; assay type: cell-based, human; details: compound applied directly to replicon cells, not via PBL conditioned medium

| Structure (SMILES) | EC50 (TLR7) | direct response of HCV replicon containing cells to the TLR agonist [1] |
| --- | --- | --- |
| Cc1ccc(Cn2c(=O)[nH]c3c(N)nc(OCC4CCCO4)cc32)cn1 (stereo not drawn) [Example 5, 4-Amino-1-(6-methyl-pyridin-3-ylmethyl)-6-(tetrahydro-furan-2-R/S-ylmethoxy)-1,3-dihydro-imidazo[4,5-c]pyridin-2-one] | 698 nM and 1240 nM and 1160 nM and 3700 nM and 475 nM and 1430 nM and 1040 nM and 583 nM and 1010 nM and 737 nM | – |
| Cc1ccc(Cn2c(=O)[nH]c3c(N)nc(OC[C@H]4CCCO4)cc32)cn1 [Example 6, 4-Amino-1-(6-methyl-pyridin-3-ylmethyl)-6-(tetrahydro-furan-2-R-ylmethoxy)-1,3-dihydro-imidazo[4,5-c]pyridin-2-one] | > 4000 nM and 1920 nM and 1000 nM and 1450 nM and 1940 nM and 1470 nM and 1250 nM and 1580 nM | – |
| CC(C)Cn1cnc2c(N)nc3ccccc3c21 [Imiquimod] | – | do not respond directly |
